Measurements: the NIST ThermoML archive (doi:10.1021/je049534w)
Several values for one entry are separate records, joined by “and”; a condition that tells them apart may be missing. Equal entries are not always repeated. Numbers after ± are expanded uncertainties.

Experiments:
[1] = Liquid, Linear variable-path acoustic interferometer
[2] = Solid-liquid equilibrium temperature; conditions: Crystal, Speed of sound

CCCCn1cc[n+](C)c1.F[P-](F)(F)(F)(F)F [1-butyl-3-methylimidazolium hexafluorophosphate]
[1]
Conditions	speed of sound
283.16 K, 100 kPa	1455.5 ± 7.8 m/s and 1457.6 ± 7.8 m/s
283.16 K, 5088 kPa	1468.6 ± 7.8 m/s
283.16 K, 5131 kPa	1470.6 ± 7.8 m/s
283.16 K, 10263 kPa	1481.8 ± 7.9 m/s
283.16 K, 20249 kPa	1506.7 ± 8 m/s
283.16 K, 29954 kPa	1529.9 ± 8 m/s
283.16 K, 29995 kPa	1532.5 ± 8 m/s
283.16 K, 44961 kPa	1564.2 ± 8.1 m/s
283.16 K, 59682 kPa	1596.7 ± 8.2 m/s
283.16 K, 59829 kPa	1599.6 ± 8.3 m/s
283.16 K, 79904 kPa	1638.6 ± 8.4 m/s
283.16 K, 99077 kPa	1677.1 ± 8.5 m/s
283.16 K, 124179 kPa	1724.4 ± 8.7 m/s
283.16 K, 150925 kPa	1772.6 ± 8.8 m/s
291.15 K, 100 kPa	1440.2 ± 7.8 m/s
291.15 K, 5069 kPa	1453.3 ± 7.8 m/s
291.15 K, 10166 kPa	1466.6 ± 7.8 m/s
291.15 K, 20400 kPa	1492.4 ± 7.9 m/s
291.15 K, 30019 kPa	1515.7 ± 8 m/s
291.15 K, 44920 kPa	1550 ± 8.1 m/s
291.15 K, 59912 kPa	1583.2 ± 8.2 m/s
293.16 K, 100 kPa	1432.8 ± 7.7 m/s and 1431.6 ± 7.7 m/s
293.16 K, 5157 kPa	1446.5 ± 7.8 m/s
293.16 K, 10195 kPa	1459 ± 7.8 m/s
293.16 K, 20215 kPa	1484.2 ± 7.9 m/s
293.16 K, 29959 kPa	1507.9 ± 8 m/s
293.16 K, 44757 kPa	1542.2 ± 8.1 m/s
293.16 K, 59732 kPa	1574.7 ± 8.2 m/s
293.16 K, 78627 kPa	1613.8 ± 8.3 m/s
293.16 K, 99149 kPa	1654.5 ± 8.4 m/s
294.16 K, 5125 kPa	1444.5 ± 7.8 m/s
294.16 K, 10105 kPa	1457.2 ± 7.8 m/s
294.16 K, 20357 kPa	1483.2 ± 7.9 m/s
294.16 K, 29785 kPa	1506 ± 8 m/s
303.16 K, 100 kPa	1410.3 ± 7.7 m/s
303.16 K, 5078 kPa	1423.5 ± 7.7 m/s
303.16 K, 10204 kPa	1437.1 ± 7.7 m/s
303.16 K, 20225 kPa	1462.8 ± 7.8 m/s
303.16 K, 44714 kPa	1521.3 ± 8 m/s
303.16 K, 59773 kPa	1554.6 ± 8.1 m/s
303.16 K, 98921 kPa	1634.4 ± 8.4 m/s
313.16 K, 100 kPa	1389.5 ± 7.6 m/s
313.16 K, 5010 kPa	1402.8 ± 7.6 m/s
313.16 K, 10043 kPa	1416.4 ± 7.7 m/s
313.16 K, 20319 kPa	1443.3 ± 7.8 m/s
313.16 K, 41702 kPa	1495.1 ± 7.9 m/s
313.16 K, 44866 kPa	1502.9 ± 8 m/s
313.16 K, 59754 kPa	1536.3 ± 8.1 m/s
313.16 K, 79721 kPa	1578.6 ± 8.2 m/s
313.16 K, 99097 kPa	1617.4 ± 8.3 m/s
313.16 K, 125283 kPa	1662.2 ± 8.5 m/s
323.25 K, 100 kPa	1368 ± 7.5 m/s
323.25 K, 5061 kPa	1381.8 ± 7.6 m/s
323.25 K, 9942 kPa	1395.4 ± 7.6 m/s
323.25 K, 20234 kPa	1422.7 ± 7.7 m/s
323.25 K, 29721 kPa	1446.8 ± 7.8 m/s
323.25 K, 44935 kPa	1482.2 ± 7.9 m/s
323.25 K, 59711 kPa	1516 ± 8 m/s
323.25 K, 79553 kPa	1557.9 ± 8.1 m/s
323.25 K, 98901 kPa	1592.5 ± 8.2 m/s

[2]
Conditions	Solid-liquid equilibrium temperature [K]
100 kPa	285 ± 0.44
34000 kPa	291.15 ± 0.72
40200 kPa	293.15 ± 0.77
42500 kPa	294.16 ± 0.94
55000 kPa	296.15 ± 0.51
88900 kPa	303.15 ± 0.54
